Source: US10208021B2, “Substituted tetrahydroisoquinoline compounds as factor XIa inhibitors” (BRISTOL-MYERS SQUIBB COMPANY, priority 2011, dated 2019)
pKi: −log10 of the molar value. Where a name gives a salt, the structure may show the parent alone.

Target: purified human Factor XIa (Homo sapiens (Human), UniProt P03951)
Experiment: Factor XIa chromogenic substrate (S-2366) inhibition assay
Type: biochemical
Protocol: The effectiveness of compounds of the present invention as inhibitors of the coagulation factors XIa, VIIa, IXa, Xa, XIIa, plasma kallikrein or thrombin, can be determined using a relevant purified serine protease, respectively, and an appropriate synthetic substrate. The rate of hydrolysis of the chromogenic or fluorogenic substrate by the relevant serine protease was measured both in the absence and presence of compounds of the present invention. […] A decrease in the rate of absorbance or fluorescence change in the presence of inhibitor is indicative of enzyme inhibition. Such methods are known to one skilled in the art. The results of this assay are expressed as the inhibitory constant, Ki. […] JT Baker or Fisher Scientific). […] Values of Ki were determined by allowing the protease to react with the substrate in the presence of the inhibitor. Reactions were allowed to go for periods of 20-180 minutes (depending on the protease) and the velocities (rate of absorbance or fluorescence change versus time) were measured.

[1] = substrate S-2366, activity ranges, Table A

Sequence of purified human Factor XIa (P03951 388-625): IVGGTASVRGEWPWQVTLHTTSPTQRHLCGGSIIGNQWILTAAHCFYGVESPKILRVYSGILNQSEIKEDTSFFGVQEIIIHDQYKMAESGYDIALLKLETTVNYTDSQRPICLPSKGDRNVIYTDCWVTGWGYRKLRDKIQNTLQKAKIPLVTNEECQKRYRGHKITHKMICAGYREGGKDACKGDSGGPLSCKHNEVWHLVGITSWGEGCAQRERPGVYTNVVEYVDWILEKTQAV
Sequence of purified human Factor XIa (P03951 19-387 partner): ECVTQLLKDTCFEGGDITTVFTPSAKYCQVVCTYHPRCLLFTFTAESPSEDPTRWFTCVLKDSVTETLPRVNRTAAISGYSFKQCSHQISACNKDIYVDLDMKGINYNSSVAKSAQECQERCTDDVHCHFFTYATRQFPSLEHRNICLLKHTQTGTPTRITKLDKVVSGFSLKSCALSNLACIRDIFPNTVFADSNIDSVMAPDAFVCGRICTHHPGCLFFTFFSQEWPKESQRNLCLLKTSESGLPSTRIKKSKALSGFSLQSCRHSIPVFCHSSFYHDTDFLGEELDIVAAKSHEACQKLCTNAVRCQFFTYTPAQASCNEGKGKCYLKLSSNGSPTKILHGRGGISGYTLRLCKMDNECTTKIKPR

| SMILES | pKi [1] | pKi (substrate S-2366, Table 1) |
| --- | --- | --- |
| CC1(C)CCN(c2cccc3c2CCN(C(=O)/C=C/c2c(-n4cnnn4)ccc(Cl)c2F)C3C(=O)Nc2ccc(C(=O)O)cc2)CC1 (racemic) [Example 117] | > 8.30 |  |
| CCOC(=O)c1cc(C)n(-c2cccc3c2CCN(C(=O)/C=C/c2c(-n4cnnn4)ccc(Cl)c2F)C3C(=O)Nc2ccc(C(=O)O)cc2)n1 (stereo not drawn) [Example 241, (E)-4-(2-(3-(3-Chloro-2-fluoro-6-(1H-tetrazol-1-yl)phenyl)acryloyl)-5-(3-(ethoxycarbonyl)-5-methyl-1H-pyrazol-1-yl)-1,2,3,4-tetrahydroisoquinoline-1-carboxamido)benzoic acid] | > 8.30 |  |
| CC(C)(C)OC(=O)c1ccc(NC(=O)[C@@H]2c3cccc(N4CCOCC4=O)c3CCN2C(=O)/C=C/c2c(-n3cnnn3)ccc(Cl)c2F)cc1 [Example 50] | 6.30 to 7.00 |  |
| CCOC(=O)c1ccc(NC(=O)[C@@H]2c3cccc(N4CCN(C)CC4=O)c3CCN2C(=O)/C=C/c2c(-n3cnnn3)ccc(Cl)c2F)cc1 [Example 192, (S,E)-Ethyl 4-(2-(3-(3-chloro-2-fluoro-6-(1H-tetrazol-1-yl)phenyl)acryloyl)-5-(4-methyl-2-oxopiperazin-1-yl)-1,2,3,4-tetrahydroisoquinoline-1-carboxamido)benzoate, TFA Salt] | 8.00 to 8.30 |  |
| N#Cc1ccc(Cl)c(F)c1/C=C/C(=O)N1CCc2c(cccc2N2CCC(N3CCCC3)CC2)C1C(=O)Nc1ccc(C(=O)O)cc1 (racemic) [Example 155] |  | > 8.30 |
| CC(=O)c1ccc(Cl)c(F)c1/C=C/C(=O)N1CCc2c(cccc2N2CCS(=O)(=O)CC2)[C@H]1C(=O)Nc1ccc(C(=O)O)cc1 [Example 217] | > 8.30 |  |
| O=C1CCC2(CCN(c3cccc4c3CCN(C(=O)/C=C/c3c(-n5cnnn5)ccc(Cl)c3F)C4C(=O)Nc3ccc(C(=O)O)cc3)CC2)O1 (racemic) [Example 145] | > 8.30 |  |
| CCOC(=O)C1CCN(c2cccc3c2CCN(C(=O)/C=C/c2c(-n4cnnn4)ccc(Cl)c2F)C3C(=O)Nc2ccc(C(=O)O)cc2)CC1 (racemic) [Example 136] | > 8.30 |  |
| CN(C)CCNC(=O)N1CCCN(c2cccc3c2CCN(C(=O)/C=C/c2c(-n4cnnn4)ccc(Cl)c2F)C3C(=O)Nc2ccc(C(=O)O)cc2)CC1 (racemic) [Example 261] | > 8.30 |  |
| O=C(Nc1ccccc1)c1ccc(NC(=O)C2c3cccc(N4CCNCC4)c3CCN2C(=O)/C=C/c2cc(Cl)c(F)cc2-n2cnnn2)cc1 (racemic) [Example 69] | 6.30 to 7.00 |  |
| CC(C)(C)OC(=O)c1ccc(NC(=O)C2c3cccc(N4CCC(N5CCCC5)CC4)c3CCN2C(=O)/C=C/c2c(-n3cnnn3)ccc(Cl)c2F)cc1 (racemic) [Example 84] | > 8.30 |  |
| COC(=O)N1CCN(c2cccc3c2CCN(C(=O)/C=C/c2c(-n4cnnn4)ccc(Cl)c2F)C3C(=O)Nc2ccc(C#N)cc2)CC1 (stereo not drawn) [Example 26] | 8.00 to 8.30 |  |
| CCOC(=O)c1ccc(NC(=O)[C@@H]2c3cccc(N4CCC(C(=O)N5CCCC5)CC4)c3CCN2C(=O)/C=C/c2c(-n3cnnn3)ccc(Cl)c2F)cc1 [Example 135] | > 8.30 |  |
| COc1cccc(NC(=O)c2ccc(NC(=O)C3c4cccc(N5CCNCC5)c4CCN3C(=O)/C=C/c3cc(Cl)c(F)cc3-n3cnnn3)cc2)c1 (racemic) [Example 75] | 6.30 to 7.00 |  |
| O=C(N[C@H]1CC[C@H](O)CC1)C1c2cccc(N3CCC(N4CCCC4)CC3)c2CCN1C(=O)/C=C/c1c(-n2cnnn2)ccc(Cl)c1F (mixture of isomers) [Example 236] | 8.00 to 8.30 |  |
| CC1(C)Cc2c(cccc2N2CCCCC2)[C@H](C(=O)Nc2ccc(C(=O)O)cc2)N1C(=O)/C=C/c1c(-n2cnnn2)ccc(Cl)c1F [Example 196] |  | 6.07 |
| O=C(O)c1ccc(NC(=O)C2c3cccc(N4CCC(C(=O)N5CCOCC5)CC4)c3CCN2C(=O)/C=C/c2c(-n3cnnn3)ccc(Cl)c2F)cc1 (racemic) [Example 140] | > 8.30 |  |
| O=C(O)c1ccc(NC(=O)C2c3cccc(N4CCC(N5CCCC5=O)CC4)c3CCN2C(=O)C=Cc2c(-n3cnnn3)ccc(Cl)c2F)cc1 (stereo not drawn) [Example 119] |  | > 8.30 |
| COc1ccc(Cl)c(F)c1/C=C/C(=O)N1CCc2c(cccc2N2CCC(N3CCCC3)CC2)C1C(=O)Nc1ccc(C(=O)O)cc1 (racemic) [Example 161] | > 8.30 |  |
| CCOC(=O)c1ccc(NC(=O)C2c3cccc(N4CCC(N5CCCC5)CC4)c3CCN2C(=O)/C=C/c2c(-n3cnnn3)ccc(Cl)c2F)cc1 (racemic) [Example 83] | > 8.30 |  |
| O=C(Nc1ccc(F)cc1)C1c2cccc(N3CCC(N4CCCC4)CC3)c2CCN1C(=O)/C=C/c1c(-n2cnnn2)ccc(Cl)c1F (racemic) [Example 82] | > 8.30 |  |
| NCc1ccc(Cl)cc1/C=C/C(=O)N1CCc2c(cccc2N2CCNCC2)C1C(=O)Nc1ccc(C(=O)O)cc1 (stereo not drawn) [Example 32, (E)-4-(2-(3-(2-(Aminomethyl)-5-chlorophenyl)acryloyl)-5-(piperazin-1-yl)-1,2,3,4-tetrahydroisoquinoline-1-carboxamido)benzoic acid, tri TFA Salt] | 6.30 to 7.00 |  |
| CN1CCN(c2cccc3c2CCN(C(=O)/C=C/c2c(-n4cnnn4)ccc(Cl)c2F)C3C(=O)Nc2ccc(C#N)cc2)CC1 (stereo not drawn) [Example 20] | 8.00 to 8.30 |  |

| SMILES | pKi [1] | pKi (substrate S-2366, Table 1) |
| --- | --- | --- |
| CN(C)CCN1CCN(c2cccc3c2CCN(C(=O)C=Cc2c(-n4cnnn4)ccc(Cl)c2F)C3C(=O)Nc2ccc(C(=O)O)cc2)CCC1=O (stereo not drawn) [Example 266] |  | > 8.30 |
| O=C(O)c1ccc(NC(=O)C2c3cccc(N4CCC(N5CCCC5)CC4)c3CCN2C(=O)C=Cc2c(C(F)(F)F)ccc(Cl)c2F)cc1 (stereo not drawn) [Example 178] | > 8.30 |  |
| NC(=O)c1ccc(NC(=O)C2c3cccc(N4CCNCC4)c3CCN2C(=O)/C=C/c2cc(Cl)c(F)cc2-n2cnnn2)cc1 (stereo not drawn) [Example 66, (E)-N-(4-carbamoylphenyl)-2-(3-(5-chloro-4-fluoro-2-(1H-tetrazol-1-yl)phenyl)acryloyl)-5-(piperazin-1-yl)-1,2,3,4-tetrahydroisoquinoline-1-carboxamide, bis-TFA Salt] | 8.00 to 8.30 |  |
| CC(=O)c1ccc(Cl)c(F)c1/C=C/C(=O)N1CCc2c(cccc2N2CCC(C(=O)N(C)C)CC2)[C@H]1C(=O)Nc1ccc(C(=O)O)cc1 [Example 219] | > 8.30 |  |
| O=C(O)c1ccc(NC(=O)[C@@H]2c3cccc(N4CCCCC4=O)c3CCN2C(=O)/C=C/c2cc(Cl)c(F)cc2-n2cnnn2)cc1 [compound 42] | 8.00 to 8.30 |  |
| O=C(O)c1ccc(NC(=O)C2c3cccc(N4CCC(N5CCCC5)CC4)c3CCN2C(=O)/C=C/c2c(-n3cnnn3)ccc(Cl)c2F)cc1 (stereo not drawn) [Example 80, (E)-4-(2-(3-(3-Chloro-2-fluoro-6-(1H-tetrazol-1-yl)phenyl)acryloyl)-5-(4-(pyrrolidin-1-yl)piperidin-1-yl)-1,2,3,4-tetrahydroisoquinoline-1-carboxamido)benzoic acid, bis TFA Salt] | > 8.30 |  |
| O=C(Nc1ccc(Cl)cc1)C1c2cccc(N3CCC(N4CCCC4)CC3)c2CCN1C(=O)/C=C/c1c(-n2cnnn2)ccc(Cl)c1F (racemic) [Example 104] | > 8.30 |  |
| O=C(O)c1ccc(NC(=O)C2c3cccc(N4CCC(N5CCCC5=O)CC4)c3CCN2C(=O)C=Cc2c(-n3cnnn3)ccc(Cl)c2F)cc1 (stereo not drawn) [Example 118] | 8.00 to 8.30 |  |
| O=C(O)c1ccc(NC(=O)C2c3cccc(N4CCC(N5CCCC5)CC4)c3CCN2C(=O)/C=C/c2cccc(Cl)c2Cl)cc1 (racemic) [Example 157] | 8.00 to 8.30 |  |
| CC(C)(C)OC(=O)c1ccc(NC(=O)C2c3cccc(N4CCOCC4)c3CCN2C(=O)/C=C/c2c(-n3cnnn3)ccc(Cl)c2F)cc1 (racemic) [Example 59] | 8.00 to 8.30 |  |
| CC(=O)c1ccc(Cl)c(F)c1C=CC(=O)N1CCc2c(cccc2N2CCC3(CCN(C)C3=O)CC2)C1C(=O)Nc1ccc(C(=O)O)cc1 (stereo not drawn) [Example 222] | > 8.30 |  |
| CCOC(=O)c1ccc(NC(=O)C2c3cccc(N4CCC(N5CCCC5)CC4)c3CCN2C(=O)C=Cc2c(C#N)ccc(Cl)c2F)cc1 (stereo not drawn) [Example 166] | 8.00 to 8.30 |  |
| CN(C)C(=O)C1CCN(c2cccc3c2CCN(C(=O)C=Cc2c(-n4cnnn4)ccc(Cl)c2F)C3C(=O)Nc2ccc(C(=O)O)cc2)CC1 (stereo not drawn) [Example 101] | > 8.30 |  |
| CC1(C(=O)N2CCCC2)CCN(c2cccc3c2CCN(C(=O)/C=C/c2c(-n4cnnn4)ccc(Cl)c2F)C3C(=O)Nc2ccc(C(=O)O)cc2)CC1 (racemic) [Example 152] | > 8.30 |  |
| O=C(Nc1ccc(F)cc1)C1c2cccc(N3CCNCC3)c2CCN1C(=O)/C=C/c1c(-n2cnnn2)ccc(Cl)c1F (stereo not drawn) [Example 5] | 8.00 to 8.30 |  |
| COC1CCN(c2cccc3c2CCN(C(=O)/C=C/c2c(-n4cnnn4)ccc(Cl)c2F)[C@@H]3C(=O)Nc2ccc(C(=O)O)cc2)CC1 [Example 151] | > 8.30 |  |
| O=C(Nc1ccc(Cl)cc1)C1c2cccc(N3CCC(N4CCCC4)CC3)c2CCN1C(=O)C=Cc1c(-n2cnnn2)ccc(Cl)c1F (stereo not drawn) [Example 112] | > 8.30 |  |
| CN1CCN(c2cccc3c2CC(C)(C)N(C(=O)/C=C/c2c(-n4cnnn4)ccc(Cl)c2F)[C@@H]3C(=O)Nc2ccc(C(=O)O)cc2)CC1 [Example 201] | > 8.30 |  |
| CC(=O)c1ccc(Cl)c(F)c1/C=C/C(=O)N1CCc2c(cccc2N2CCC(N3CCCC3)CC2)C1C(=O)Nc1ccc(C(=O)O)cc1 (racemic) [Example 154] | > 8.30 |  |
| CC(=O)c1ccc(Cl)c(F)c1/C=C/C(=O)N1CCc2c(cccc2N2CCCCC2=O)[C@H]1C(=O)Nc1ccc(C(=O)O)cc1 [compound 40] | > 8.30 |  |
| CCOC(=O)c1ccc(NC(=O)C2c3cccc(N4CCC5(CCN(C)C5=O)CC4)c3CCN2C(=O)/C=C/c2c(-n3cnnn3)ccc(Cl)c2F)cc1 (racemic) [Example 109] | 8.00 to 8.30 |  |
| O=C(Nc1ccc(F)cc1)C1c2cccc(N3CCC(N4CCCC4)CC3)c2CCN1C(=O)C=Cc1c(-n2cnnn2)ccc(Cl)c1F (stereo not drawn) [Example 86] | > 8.30 |  |
